# Target: T1, Vasopressin V1b receptor (Homo sapiens, UniProt P47901)
# T1 sequence (P47901 whole entry): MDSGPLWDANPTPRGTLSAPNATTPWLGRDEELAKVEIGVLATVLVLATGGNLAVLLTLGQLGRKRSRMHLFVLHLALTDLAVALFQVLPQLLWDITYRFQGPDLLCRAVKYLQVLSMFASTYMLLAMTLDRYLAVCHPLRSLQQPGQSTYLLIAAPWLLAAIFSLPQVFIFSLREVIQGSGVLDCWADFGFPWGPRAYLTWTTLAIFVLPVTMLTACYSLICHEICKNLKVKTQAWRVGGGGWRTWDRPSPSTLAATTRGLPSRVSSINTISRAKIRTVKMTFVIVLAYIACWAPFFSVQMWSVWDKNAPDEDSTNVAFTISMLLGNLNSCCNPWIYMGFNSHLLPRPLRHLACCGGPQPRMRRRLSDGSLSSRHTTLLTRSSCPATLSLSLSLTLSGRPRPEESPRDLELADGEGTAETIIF
# Test: Binding Assay
# Conditions: pH 7.4; 25 °C
# Procedure: The nonspecific binding was determined with 1 μM AVP (Fluka 94836). All determinations were carried out as duplicate determinations. […] The liquid scintillation measurement took place in a Microbeta TriLux 12 (Wallac).
row,SMILES,Ki
1,"CCOc1ccc(OC)c(C2(N3CC4(CN(C5CCN(C)CC5)C4)C3)C(=O)N(S(=O)(=O)c3ccc(OC)cc3OC)C3C=CC(C#N)=CC32)c1 (racemic) [US9688678, 2 (+-)-1-(2,4-dimethoxyphenyl)sulfonyl-3-(2-ethoxy-5-methoxy-phenyl)-3-[2-(1-methyl-4-piperidyl)-2,6-diazaspiro[3.3]heptan-6-yl]-2-oxo-indoline-5-carbonitrile]",in the range around 55 nM
2,"CCOc1ccc(OC)c(C2(N3CC4(CN(C5CCN(C)CC5)C4)C3)C(=O)N(S(=O)(=O)c3cccc4cccnc34)C3C=CC(C#N)=CC32)c1 (racemic) [US9688678, 3 (+-)-3-(2-ethoxy-5-methoxy-phenyl)-3-[2-(1-methyl-4-piperidyl)-2,6-diazaspiro[3.3]heptan-6-yl]-2-oxo-1-(8-quinolylsulfonyl)indoline-5-carbonitrile]",in the range around 55 nM
3,"CCOc1ccc(OC)cc1C1(N2CC3(CN(C4CCN(C)CC4)C3)C2)C(=O)N(S(=O)(=O)c2cc(F)ccn2)C2C=CC(C#N)=CC21 (racemic) [US9688678, 16 (+-)-3-(2-ethoxy-5-methoxy-phenyl)-1-(4-fluorophenyl)sulfonyl-3-[2-(1-methyl-4-piperidyl)-2,6-diazaspiro[3.3]heptan-6-yl]-2-oxo-indoline-5-carbonitrile]",in the range around 55 nM
4,"CCOc1ccc(OC)cc1C1(N2CC3(CN(N4CCN(C)CC4)C3)C2)C(=O)N(S(=O)(=O)c2ccc(OC)cn2)C2C=CC(C#N)=CC21 (racemic) [US9688678, 17 (+-)-3-(2-ethoxy-5-methoxy-phenyl)-1-[(5-methoxy-2-pyridyl)sulfonyl]-3-[2-(4-methylpiperazin-1-yl)-6-azaspiro[3.3]heptan-6-yl]-2-oxo-indoline-5-carbonitrile]",< 1 nM
5,"COc1ccc(S(=O)(=O)N2C(=O)C(c3cccnc3OC)(N3CC4(CN(C5CCN(C)CC5)C4)C3)C3C=C(C#N)C=CC32)nc1 (stereo not drawn) [US9688678, 9A (+)-3-(2-ethoxy-3-pyridyl)-1-[(5-methoxy-2-pyridyl)sulfonyl]-3-[2-(1-methyl-4-piperidyl)-2,6-diazaspiro[3.3]heptan-6-yl]-2-oxo-indoline-5-carbonitrile]",< 1 nM
6,"CCOc1cnc(OCC)c(C2(N3CC4(CN(C5CCN(C)CC5)C4)C3)C(=O)N(S(=O)(=O)c3cc(OC)ccn3)C3C=CC(C#N)=CC32)c1 (stereo not drawn) [US9688678, 12 (+-)-3-(2-ethoxy-3-pyridyl)-1-(4-methoxyphenyl)sulfonyl-3-[2-(1-methyl-4-piperidyl)-2,6-diazaspiro[3.3]heptan-6-yl]-2-oxo-indoline-5-carbonitrile]",in the range around 55 nM
7,"COc1ccc(S(=O)(=O)N2C(=O)C(c3ccccc3OC)(N3CC4(CN(C5CCN(C)CC5)C4)C3)C3C=C(C#N)C=CC32)nc1 (stereo not drawn) [US9688678, 18A (+)-3-(2-methoxyphenyl)-1-[(5-methoxy-2-pyridyl)sulfonyl]-3-[2-(1-methyl-4-piperidyl)-2,6-diazaspiro[3.3]heptan-6-yl]-2-oxo-indoline-5-carbonitrile]",< 1 nM
8,"CCOc1ccc(OC)cc1[C@]1(N2CC3(CN(C4CCN(C)CC4)C3)C2)C(=O)N(S(=O)(=O)c2cccc(OC)n2)C2C=CC(C#N)=CC21 (stereo partly drawn) [US9688678, 32 (3S)-3-(2-ethoxy-5-methoxy-phenyl)-1-[(6-methoxy-2-pyridyl)sulfonyl]-3-[2-(1-methyl-4-piperidyl)-2,6-diazaspiro[3.3]heptan-6-yl]-2-oxo-indoline-5-carbonitrile]",in the range around 55 nM

# Results, then the compound that gave them:
row,Ki,SMILES
1,in the range around 55 nM,"CCOc1ccc(OC)cc1C1(N2CC3(CN(C4CCN(C)CC4)C3)C2)C(=O)N(S(=O)(=O)c2cc(C#N)ccn2)C2C=CC(C#N)=CC21 (racemic) [US9688678, 14 (+-)-1-(4-cyanophenyl)sulfonyl-3-(2-ethoxy-5-methoxy-phenyl)-3-[2-(1-methyl-4-piperidyl)-2,6-diazaspiro[3.3]heptan-6-yl]-2-oxo-indoline-5-carbonitrile]"
2,< 1 nM,"CCOc1ccc(OC)cc1C1(N2CC3(CN(C4CCN(C(C)C)CC4)C3)C2)C(=O)N(S(=O)(=O)c2ccc(OC)cn2)C2C=CC(C#N)=CC21 (racemic) [US9688678, 19 (+-)-3-(2-ethoxy-5-methoxy-phenyl)-3-[2-(1-isopropyl-4-piperidyl)-2,6-diazaspiro[3.3]heptan-6-yl]-1-[(5-methoxy-2-pyridyl)sulfonyl]-2-oxo-indoline-5-carbonitrile]"
3,< 1 nM,"COc1ccc(S(=O)(=O)N2C(=O)C(c3cc(OC)ccc3OC)(N3CC4(CN(C5CCN(C)CC5)C4)C3)C3C=C(C#N)C=CC32)nc1 (racemic) [US9688678, 21 (+-)-3-(2,5-dimethoxyphenyl)-1-[(5-methoxy-2-pyridyl)sulfonyl]-3-[2-(1-methyl-4-piperidyl)-2,6-diazaspiro[3.3]heptan-6-yl]-2-oxo-indoline-5-carbonitrile]"
4,< 1 nM,"CCOc1ccc(OC)cc1C1(N2CC3(CN(N4CCN(C)CC4)C3)C2)C(=O)N(S(=O)(=O)c2ccc(OC)cn2)C2C=CC(C#N)=CC21 (single isomer, unassigned; (+)) [US9688678, 17B (+)-3-(2-ethoxy-5-methoxy-phenyl)-1-[(5-methoxy-2-pyridyl)sulfonyl]-3-[2-(4-methylpiperazin-1-yl)-6-azaspiro[3.3]heptan-6-yl]-2-oxo-indoline-5-carbonitrile]"
5,< 1 nM,"CCOc1ccc(OC)c(C2(N3CC4(CN(C5CCN(C6COC6)CC5)C4)C3)C(=O)N(S(=O)(=O)c3ccc(OC)cn3)C3C=CC(C#N)=CC32)c1 (stereo not drawn) [US9688678, 11 (+)-3-(2-ethoxy-5-methoxyphenyl)-1-((5-methoxypyridin-2-yl)sulfonyl)-3-(6-(1-(oxetan-3-yl)piperidin-4-yl)-2,6-diazaspiro[3.3]heptan-2-yl)-2-oxoindoline-5-carbonitrile]"
6,< 1 nM,"COc1ccc(S(=O)(=O)N2C(=O)C(c3ccccc3OC)(N3CC4(CN(C5CCN(C)CC5)C4)C3)C3C=C(C#N)C=CC32)nc1 (stereo not drawn) [US9688678, 18 (+-)3-(2-methoxyphenyl)-1-[(5-methoxy-2-pyridyl)sulfonyl]-3-[2-(1-methyl-4-piperidyl)-2,6-diazaspiro[3.3]heptan-6-yl]-2-oxo-indoline-5-carbonitrile]"
7,in the range around 5.5 nM,"CCOc1ccc(OC)cc1C1(N2CC3(CN(C4CCN(C)CC4)C3)C2)C(=O)N(S(=O)(=O)c2ccc(OC)cn2)C2C=C(C#N)C=CC21 (stereo not drawn) [US9688678, 29 (+-)-3-(2-ethoxy-5-methoxy-phenyl)-1-[(5-methoxy-2-pyridyl)sulfonyl]-3-[2-(1-methyl-4-piperidyl)-2,6-diazaspiro[3.3]heptan-6-yl]-2-oxo-indoline-6-carbonitrile]"
8,< 1 nM,"CCOc1ccc(OC)cc1[C@]1(N2CC3(CN(C4CCN(C)CC4)C3)C2)C(=O)N(S(=O)(=O)c2ccc(Cl)cn2)C2C=CC(C#N)=CC21 (stereo partly drawn) [US9688678, 34 (3S)-1-[(5-chloro-2-pyridyl)sulfonyl]-3-(2-ethoxy-5-methoxy-phenyl)-3-[2-(1-methyl-4-piperidyl)-2,6-diazaspiro[3.3]heptan-6-yl]-2-oxo-indoline-5-carbonitrile]"

# — BindingDB's records for patent US9688678 (Abbvie Deutschland, 2017)
